Laboratory results as given in patent publication US20210169911A1, “PURINE AND PYRIMIDINE NUCLEOTIDES AS ECTO-5'-NUCLEOTIDASE INHIBITORS” (The United States of America,as represented by the …, priority 2018, published 2021).

How the values were obtained:
[1] = test system: recombinant soluble human CD73; test: Radiometric CD73 inhibition assay, recombinant soluble human CD73; format: biochemical; conditions: human vs rat CD73 Ki, Table 5
Protocol: The cDNA for the soluble human CD73 (Genbank accession no. NM_002526) was obtained from Prof. Dr. Norbert Sträter (University of Leipzig, Germany) (3). […] Sf9 insect cells were grown in Insect-[…] media (#: BE12-[…], Lonza, Switzerland) with 10 mg/l gentamicin and split at a ratio of 1:3 every fourth day. For transfection, cells were seeded into cell culture flasks (25 cm^2) at 60-70% confluence. 100 μl of cell medium and 1 μl of the vector DNA (1000 ng/μ1) were mixed with 2.5 μl of baculovirus genomic ProEasyTM vector DNA (AB vector, CA, USA) and combined with premixed 100 μl of cell medium and 8 μl of CellfectinTM II Reagent (Thermo Fisher Scientific, MA, USA). […] The cells were incubated for 30 min at rt, and for further 4 days at 27° C. Cells from the transfection procedure were detached from the bottom of the flasks and centrifuged for 5 min at 2000 g. 1.5 ml of the supernatant (viral stock) was added to 75 cm^2 cell culture flasks containing Sf9 cells (60-70% confluence), and the cells were incubated for four days at 27° C. Then 1.5 ml of the supernatant were taken and added to uninfected Sf9 cells in a 75 cm^2 flask. This was repeated five more times, using more cells and larger flasks after the third round of infections (150 cm^2 to which 3.0 ml of supernatant were added). The stock P8 was finally used for infection of the cells. For protein expression, 3 ml of the virus solution were used to infect 150 ml of cell media containing 2×10^6 cells/ml in a 500 ml Erlenmeyer flask, and they were incubated for 4 days at 27° C. with shaking (150 rpm). Then, cell suspensions were transferred to 50 ml falcon tubes and centrifuged at 15 min at 5000 g at 4° C. The supernatants were subjected to ultrafiltration using Amicon® Ultra-15, 10 kDa cut-off (Merck Millipore, MA, USA) at 5000 g for 15-30 min at 4° C. The concentrated protein was purified with HisPurTM Ni^2+-NTA spin columns (#: 88226, Thermo Fisher Scientific, MA, USA). The elution of the columns was performed as recommended in the instruction manual with adjusting the incubation time for protein binding to 1 h at 4° C. with an end-over-end mixer and an additional incubation step of 5 min with the elution buffer before eluting. Eluates were pooled and dialyzed (Membra-Cer, 14 kDa cut-off, 250 mm×44 mm×0.02 mm; Carl Roth, Germany) at 4° C. in 25 mM Tris, pH 7.4, with a volume adjusted to 40 times the volume of the elution fraction. […] The enzyme was aliquoted and stored at -80° C. until use.

human P2Y6 receptor = molecular target: T1, human P2Y6 receptor (Homo sapiens, UniProt Q15077); test: Human P2Y6 receptor assay, calcium mobilization in 1321N1 astrocytoma cells; format: cell-based; conditions: 1321N1 cells expressing human P2Y6, read-out: hP2Y6 EC50 ± SEM
T1 construct: expressed in transfected cells; host or cells: 1321N1 human astrocytoma cells
Protocol: Calcium mobilization induced by the nucleotide derivatives was measured in a human astrocytoma cell line (1321N1) expressing the human P2Y6 receptor, as previously described (33).

human P2Y14 receptor = molecular target: T2, human P2Y14 receptor (Homo sapiens, UniProt Q15391); test: Human P2Y14 receptor assay, inhibition of binding of a fluorescent antagonist, flow cytometry in CHO cells; conditions: CHO cells expressing human P2Y14, read-out: hP2Y14 IC50 ± SEM
T2 construct: expressed in transfected cells; host or cells: CHO cells
T2 sequence (Q15391 1-338): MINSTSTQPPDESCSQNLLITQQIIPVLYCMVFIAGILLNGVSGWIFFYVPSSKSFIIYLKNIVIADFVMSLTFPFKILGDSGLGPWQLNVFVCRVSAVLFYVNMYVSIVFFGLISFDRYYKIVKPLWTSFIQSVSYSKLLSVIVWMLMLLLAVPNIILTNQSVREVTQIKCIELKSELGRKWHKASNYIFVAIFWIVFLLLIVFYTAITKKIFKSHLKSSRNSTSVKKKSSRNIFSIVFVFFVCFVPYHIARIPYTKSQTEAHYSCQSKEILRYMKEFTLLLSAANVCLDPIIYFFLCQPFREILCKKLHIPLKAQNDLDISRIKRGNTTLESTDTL
Protocol: Inhibition of binding of a high affinity fluorescent antagonist was measured using flow cytometry in a CHO cell line expressing the human P2Y14 receptor, as previously described (34).

[2] = molecular target: T3, CD73 in human tonsillary tissue (Homo sapiens, UniProt P21589); test: Human tonsillar CD73-mediated AMPase activity in tonsil cryosections; format: biochemical; conditions: 1, 10, and 100 nM; mean pixel intensity, FIG. 10
T3 construct: Palatine tonsils were obtained from adult patients with chronic tonsillitis; from tissue; host or cells: human palatine tonsil cryosections
T3 sequence (P21589 27-549): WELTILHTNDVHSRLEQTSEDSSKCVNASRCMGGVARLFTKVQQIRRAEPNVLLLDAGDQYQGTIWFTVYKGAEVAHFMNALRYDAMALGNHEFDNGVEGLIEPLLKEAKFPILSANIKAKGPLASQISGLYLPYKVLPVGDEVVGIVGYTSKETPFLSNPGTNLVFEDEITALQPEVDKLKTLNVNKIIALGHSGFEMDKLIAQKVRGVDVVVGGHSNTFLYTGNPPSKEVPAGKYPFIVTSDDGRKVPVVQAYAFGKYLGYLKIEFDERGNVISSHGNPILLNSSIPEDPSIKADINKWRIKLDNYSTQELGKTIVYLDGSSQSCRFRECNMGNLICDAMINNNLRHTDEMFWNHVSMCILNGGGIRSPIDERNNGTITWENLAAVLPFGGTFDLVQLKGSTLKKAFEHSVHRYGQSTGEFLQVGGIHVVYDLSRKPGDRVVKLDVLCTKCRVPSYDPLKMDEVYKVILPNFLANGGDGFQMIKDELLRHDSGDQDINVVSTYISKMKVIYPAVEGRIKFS
Protocol: Palatine tonsils were obtained from adult patients with chronic tonsillitis undergoing routine tonsillectory. The tonsils were washed with phisiological salt solution, embedded in the cyro-mold with Tissue-Tek O.C.T. compound (Sakura Finetek Europe B.V., the Nethelands), cut using a cryostat and stored at −80° C. Tonsil cryoselctions were preincubated for 30 min in Trizma maleate sucrose buffer supplemented with the alkaline phosphatase inhibitor levamisole and different concentrations of compound 9h. The enzymatic reaction was then performed for 45 min at 37° C. in a final volume of […] of TMSB-buffered substrate solution containing Pb (NO3)2, CaCl2, and tested CD73 inhibitor at the same concentration. The lead orthophosphate precipitated in the course of nucleotidase activity was visualized as a brown deposit by incubating sections in (NH3)2S for 30s, followed by three washed in Trizma-maleate buffer for 5 min each. Slides were mounted with Aquatex medium (Merck, Germany). Multiple images of adjacent tissue areas were captured using a slide scanner and further stitched to a larger overview. The images of control and treated tissues were captured at identical exposure times and other settings and further acquired in parallel. Nucleotidase activities were quantified as mean pixel intensities after grayscale conversion.

[3] = molecular target: T4, recombinant soluble rat CD73 (Rattus norvegicus, UniProt P21588); test: Radiometric rat ecto-5′-nucleotidase (CD73) assay with [3H]AMP
T4 sequence (P21588 29-551 limits assumed): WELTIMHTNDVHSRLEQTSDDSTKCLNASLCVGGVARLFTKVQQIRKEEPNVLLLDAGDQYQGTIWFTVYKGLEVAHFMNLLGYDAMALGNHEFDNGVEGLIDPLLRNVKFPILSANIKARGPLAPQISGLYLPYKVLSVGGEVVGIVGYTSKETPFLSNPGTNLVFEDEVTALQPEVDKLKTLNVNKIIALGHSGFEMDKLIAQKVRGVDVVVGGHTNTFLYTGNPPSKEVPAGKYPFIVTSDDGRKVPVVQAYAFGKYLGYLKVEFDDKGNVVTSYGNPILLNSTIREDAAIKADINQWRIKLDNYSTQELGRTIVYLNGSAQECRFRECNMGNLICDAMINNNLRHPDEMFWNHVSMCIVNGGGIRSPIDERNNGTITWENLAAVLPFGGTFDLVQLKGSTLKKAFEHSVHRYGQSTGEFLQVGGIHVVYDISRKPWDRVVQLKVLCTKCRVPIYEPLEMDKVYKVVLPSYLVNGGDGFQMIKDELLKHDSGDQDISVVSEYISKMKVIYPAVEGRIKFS
Protocol: After the enzymatic reaction, the substrate was separated from its product [2,8-^3H]adenosine by precipitation with lanthanum chloride followed by filtration through glass fiber filters (34). […] Ki values were calculated from the obtained IC50 values using the Cheng-Prusoff equation (6,7).
The assay was performed as previously described (41) using recombinant rat CD73 expressed in Sf9 insect cells (33). […] The mixture was incubated for 25 min at 37° C. The reaction was stopped by adding 500 μL of ice-cooled precipitation buffer containing 100 mM aqueous lanthanum chloride and 100 mM aqueous sodium acetate solution (pH 4.0). After 30 min, the precipitation was filtered through GF/B glass fiber filters (M-48, Brandel, Gaithersburg, Md., USA). After washing three times, 4 mL of the scintillation cocktail ULTIMA Gold XR was added and then quantified by scintillation counting (TRICARB 2900 TR, Packard/PerkinElmer). Three separate inhibition assays were performed in triplicate, concentration-response curves were fitted, and Ki values were calculated.
The assay was performed essentially as previously described.^D Stock solutions (10 mM) of the compounds were prepared in demineralized water and further dilutions were performed in assay reaction buffer (25 mM Tris, 140 mM sodium chloride, 25 mM sodium dihydrogen phosphate, pH 7.4). 10 μL of the inhibitor solution were added to 70 μL of assay reaction buffer. […] The enzymatic reaction was performed for 25 min at 37° C. in a shaking water bath. […] After the precipitation was completed (after at least 30 min on ice), the mixture was separated by filtration through GF/B glass fiber filters using a cell harvester (M-48, Brandel, Gaitherburg, Md., USA). After washing each reaction vial three times with 400 μl of cold (4° C.) demineralized water, 5 ml of the scintillation cocktail (ULTIMA Gold XR, PerkinElmer, MA, USA) was added and radioactivity was measured by scintillation counting (TRICARB 2900 TR, Packard/PerkinElmer; counting efficacy: 49-52%). Two controls were included and measured as duplicates. One reaction was performed without the inhibitor resulting in 100% enzyme activity (positive control) and one was incubated without the inhibitor and the enzyme and served as background control. The resulting data were subtracted from the background and were normalized with to the positive control. The results were plotted, and concentration-inhibition curves were fitted with GraphPad Prism 5 (GraphPad Software, La Jolla, USA).
After 30 min, the precipitation was filtered through GF/B glass fiber filters (M-48, Brandel, Gaithersburg, Md., USA). After washing three times, 4 mL of the scintillation cocktail ULTIMA Gold XR was added and then quantified by scintillation counting (TRICARB 2900 TR, Packard/PerkinElmer). Three separate inhibition assays were performed in triplicate, concentration-response curves were fitted, and K, values were calculated.

[4] = molecular target: T5, membrane-bound CD73 (membrane preparation of MDA-MB-231 cells) (Homo sapiens, UniProt P21589); test: Radiometric CD73 inhibition assay, membrane preparations of MDA-MB-231 cells
T5 sequence (P21589 27-549): T3 sequence (P21589 27-549)
Protocol: After the enzymatic reaction, the substrate was separated from its product [2,8-^3H]adenosine by precipitation with lanthanum chloride followed by filtration through glass fiber filters (34). For compounds that inhibited CD73 activity by more than 50% at an initial screening concentration of 1 μM, full concentration-response curves were determined in at least three separate experiments performed in duplicates using 10 different concentrations of inhibitor. Ki values were calculated from the obtained IC50 values using the Cheng-Prusoff equation (6,7). […]
The assay was performed essentially as previously described.^D Stock solutions (10 mM) of the compounds were prepared in demineralized water and further dilutions were performed in assay reaction buffer (25 mM Tris, 140 mM sodium chloride, 25 mM sodium dihydrogen phosphate, pH 7.4). […] After washing each reaction vial three times with 400 μl of cold (4° C.) demineralized water, 5 ml of the scintillation cocktail (ULTIMA Gold XR, PerkinElmer, MA, USA) was added and radioactivity was measured by scintillation counting (TRICARB 2900 TR, Packard/PerkinElmer; counting efficacy: 49-52%). Two controls were included and measured as duplicates. […]

T1 sequence (Q15077 whole entry): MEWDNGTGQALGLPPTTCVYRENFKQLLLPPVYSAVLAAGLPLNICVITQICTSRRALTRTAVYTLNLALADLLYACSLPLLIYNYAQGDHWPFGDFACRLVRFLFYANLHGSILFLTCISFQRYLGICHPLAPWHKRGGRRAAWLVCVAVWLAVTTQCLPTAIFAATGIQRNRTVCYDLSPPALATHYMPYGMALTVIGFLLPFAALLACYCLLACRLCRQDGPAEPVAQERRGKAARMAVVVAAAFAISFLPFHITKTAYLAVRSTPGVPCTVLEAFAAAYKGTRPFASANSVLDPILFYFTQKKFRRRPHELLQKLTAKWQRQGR

## Cn1c(=O)n([C@@H]2O[C@H](COP(=O)(O)CP(=O)(O)O)[C@@H](O)[C@H]2O)cc/c1=N/OCc1ccccc1 [Compound 9h, N^4-[O-(4-Benzyloxy)]-3-methyl-cytidine-5′-O-[(phosphonomethyl)phosphonic acid]]
[1]
  potency at human CD73 as compared to the rat enzyme: somewhat less potent
Human P2Y6 receptor
  EC50: > 3000 µM
Human P2Y14 receptor
  IC50: > 3000 µM
[2]
  inhibition of the catalytic activity of CD73 in human tonsillary tissue: inhibited the catalytic activity of CD73 in a concentration-dependent manner
[3]
  Ki: 0.00367 µM
[4]
  Ki: 0.00796 µM
